From ChEMBL document CHEMBL1201862, “PubChem BioAssay data set” (2004)
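These data come from cells grown in 96-well plates and exposed to compound for 48 hours at five concentrations. The concentration for 50% growth inhibition is given as GI50.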 Active and inactive are the calls of the source. Cut-off read from the data, not from the text of the source: active = GI50 up to about 1.1 µM and inactive = higher.

What was measured:
Assay in all cases: growth of human tumour cells (NCI), 48 h
[1] = tested on: KM12
[2] = tested on: OVCAR-3
[3] = tested on: BT-549
[4] = tested on: CAKI-1
[5] = tested on: K562
[6] = tested on: PC-3
[7] = tested on: UACC-257
[8] = tested on: HT-29
[9] = tested on: SF-539
[10] = tested on: SN12C
[11] = tested on: U-251
[12] = tested on: M14
[13] = tested on: Hs-578T
[14] = tested on: LOX IMVI
[15] = tested on: 786-0
[16] = tested on: NCI-H23
[17] = tested on: RPMI-8226
[18] = tested on: MDA-N
[19] = tested on: SR
[20] = tested on: SK-MEL-2

Structure (SMILES) | GI50 [1] | GI50 [2] | GI50 [3] | GI50 [4] | GI50 [5] | GI50 [6] | GI50 [7] | GI50 [8] | GI50 [9] | GI50 [10] | GI50 [11] | GI50 [12] | GI50 [13] | GI50 [14] | GI50 [15] | GI50 [16] | GI50 [17] | GI50 [18] | GI50 [19] | GI50 [20]
CCOC(=O)c1c(C)c(C)n2c1NC(=O)C2 | > 100 µM (inactive) | > 64.4 µM (inactive) | 50.9 µM (inactive) | > 59.4 µM (inactive) | > 100 µM (inactive) | 36.8 µM (inactive) | > 60 µM (inactive) | > 74.3 µM (inactive) | > 57 µM (inactive) | > 54.3 µM (inactive) | > 48.1 µM (inactive) | > 53.7 µM (inactive) | 20.3 µM (inactive) | > 68.7 µM (inactive) | > 49.7 µM (inactive) | > 43 µM (inactive) | > 48 µM (inactive) | > 100 µM (inactive) | 37.2 µM (inactive) | > 100 µM (inactive)
Cc1nn(-c2cc(Cl)ccc2[N+](=O)[O-])c(C)c1Cl | > 100 µM (inactive) | > 100 µM (inactive) | 42.5 µM (inactive) | 83.4 µM (inactive) | 20.3 µM (inactive) | 51.2 µM (inactive) | > 100 µM (inactive) | > 100 µM (inactive) | > 100 µM (inactive) | > 100 µM (inactive) | > 100 µM (inactive) | > 100 µM (inactive) | > 100 µM (inactive) | > 100 µM (inactive) | > 100 µM (inactive) | > 100 µM (inactive) | 87.7 µM (inactive) | > 100 µM (inactive) | > 100 µM (inactive) | > 100 µM (inactive)
Nc1cc2c3c(cccc3c1)C(=O)N(c1ccc(OCCN3CCCCC3)cc1)C2=O | 20 µM (inactive) | 16.7 µM (inactive) | 19.7 µM (inactive) | 17.8 µM (inactive) | 12.1 µM (inactive) | 17.4 µM (inactive) | 16 µM (inactive) | 10.2 µM (inactive) | 14 µM (inactive) | 15.9 µM (inactive) | 22 µM (inactive) | 15.5 µM (inactive) | 27.7 µM (inactive) | 14 µM (inactive) | 16.9 µM (inactive) | 16.1 µM (inactive) | 18.3 µM (inactive) | 18.5 µM (inactive) | 14 µM (inactive) | 17.2 µM (inactive)
COC(=O)C1=C(O)C(C(=O)OC)[C@]2(O)[C@H](C(=O)OC)[C@H]1C[C@@H](c1ccc(C(F)(F)F)cc1)[C@H]2C(=O)OC (stereo not given in full) | 5.37 µM (inactive) | 3.78 µM (inactive) | 3.25 µM (inactive) | 3.34 µM (inactive) | 2.62 µM (inactive) | 3.48 µM (inactive) | 4.6 µM (inactive) | 4.68 µM (inactive) | 1.59 µM (inactive) | 4.47 µM (inactive) | 2.41 µM (inactive) | 3.81 µM (inactive) | 4.43 µM (inactive) | 2.45 µM (inactive) | 3.44 µM (inactive) | 3.58 µM (inactive) | 2.51 µM (inactive) | 3.27 µM (inactive) | 2.56 µM (inactive) | 2.79 µM (inactive)
CC1=CN(c2ccccc2)S2=C1c1sc3c(c1N2c1ccc(Br)cc1)CCCC3 (stereo not given) | > 100 µM (inactive) | > 100 µM (inactive) | > 100 µM (inactive) | > 100 µM (inactive) | > 100 µM (inactive) | > 100 µM (inactive) | > 100 µM (inactive) | > 100 µM (inactive) | > 100 µM (inactive) | > 100 µM (inactive) | > 100 µM (inactive) | > 100 µM (inactive) | > 100 µM (inactive) | 97.1 µM (inactive) | > 100 µM (inactive) | > 100 µM (inactive) | > 100 µM (inactive) | > 100 µM (inactive) | > 100 µM (inactive) | > 100 µM (inactive)
O=C(NNC(=S)NC1CCCCC1)C12CC3CC(CC(C3)C1)C2 | > 100 µM (inactive) | > 100 µM (inactive) | > 100 µM (inactive) | > 100 µM (inactive) | > 100 µM (inactive) | > 100 µM (inactive) | > 100 µM (inactive) | > 100 µM (inactive) | > 100 µM (inactive) | > 100 µM (inactive) | > 100 µM (inactive) | > 100 µM (inactive) | > 100 µM (inactive) | > 100 µM (inactive) | 61.8 µM (inactive) | > 100 µM (inactive) | > 100 µM (inactive) | > 100 µM (inactive) | 0.637 µM (active) | > 100 µM (inactive)
CC(C)Nc1n[nH]c(=O)n1C(C)C | > 100 µM (inactive) | > 100 µM (inactive) | > 100 µM (inactive) | > 100 µM (inactive) | > 100 µM (inactive) | > 100 µM (inactive) | > 100 µM (inactive) | > 100 µM (inactive) | > 100 µM (inactive) | > 100 µM (inactive) | > 100 µM (inactive) | > 100 µM (inactive) | 49.9 µM (inactive) | > 100 µM (inactive) | > 100 µM (inactive) | > 100 µM (inactive) | > 100 µM (inactive) | > 100 µM (inactive) | > 100 µM (inactive) | > 100 µM (inactive)
